Reference: US10597390B2, “Indoles for use in influenza virus infection” (Janssen Sciences Ireland UC, priority 2014, dated 2020)

Columns and labels:
[1] = tested on: influenza virus A/Taiwan/1/86 (H1N1); assay: organism not typed; assay type: cell-based; details: CPE in MDCK cells, three days post-virus exposure, ATPlite
MDCK cells = details: dog, 3 days
in vitro = details: dog, TOX MDCK CC50

| Compound | IC50 [1] [nM] | CC50 (MDCK cells) [nM] | IC50 ([1]; MDCK, 72 h) [nM] | melting point [°C] | CC50 at 3 days (in vitro) [nM] |
| --- | --- | --- | --- | --- | --- |
| N#Cc1cc(F)c(N[C@H]2C3CCC(CC3)[C@@H]2C(=O)O)nc1-c1c[nH]c2c(F)cc(F)cc12 (mixture of isomers) [Compound 216] | 2 | 70 |  |  |  |
| O=C(N[C@@H]1CCC[C@H](Nc2nc(-c3c[nH]c4c(F)cc(Cl)cc34)ncc2F)C1)c1ccccn1 (racemic) [Compound 27] | 11 | 9500 |  |  |  |
| Cc1cc(C(=O)N[C@@H]2CCC[C@H](Nc3nc(-c4c[nH]c5c(F)cc(F)cc45)ncc3F)C2)on1 (racemic) [Compound 91] | 21 | 18600 |  |  |  |
| Cc1cc(C(=O)N[C@@H]2CCC[C@@H](Nc3nc(-c4c[nH]c5c(F)cc(F)cc45)c(C#N)cc3F)C2)on1 (racemic) [Compound 207] |  | 8000 | 12 | 285 |  |
| Cc1cc(C(=O)N[C@@H]2CCC[C@H](Nc3nc(-c4c[nH]c5c(F)cc(Cl)cc45)ncc3F)C2)on1 [Compound 44] | 15 | 3500 |  | 255.1 |  |
| Cc1cc(C(=O)N[C@@H]2CCC[C@H](Nc3nc(-c4c[nH]c5c(F)cc(F)cc45)ncc3F)C2)nn1C [Compound 129] | 8 | 7500 |  | 158 |  |
| Cc1cc(C(=O)N[C@@H]2CCC[C@H](Nc3nc(-c4c[nH]c5c(F)cc(F)cc45)ncc3F)C2)on1 [Compound 133] |  | 7500 | 13 | 278.5 |  |
| N#Cc1cc(F)c(N[C@@H]2CCC[C@H](NC(=O)N3CCCC3)C2)nc1-c1c[nH]c2c(F)cc(F)cc12 [Compound 163] | 720 | 13200 |  |  |  |
| Cn1ccc(C(=O)N[C@@H]2CCC[C@@H](Nc3nc(-c4c[nH]c5c(F)cc(F)cc45)c(C#N)cc3F)C2)n1 [Compound 206] | 3 | > 25000 |  |  |  |
| Cc1cc(C(=O)N[C@@H]2CCC[C@H](Nc3nc(-c4c[nH]c5c(F)cc(F)cc45)c(C#N)cc3F)C2)nn1C [Compound 211] | 4 | > 25000 |  | 235 |  |
| N#Cc1cc(F)c(N[C@H]2C3CCC(CC3)[C@@H]2C(=O)O)nc1-c1c[nH]c2c(F)cc(F)cc12 [Compound 215] | 0.8 | 150 |  |  |  |
| Cc1cc(C(=O)N[C@@H]2CCC[C@@H](Nc3nc(-c4c[nH]c5c(F)cc(F)cc45)c(C#N)cc3F)C2)on1 [Compound 220] | 10 | 3500 |  |  |  |
| CN(C)C(=O)C(C)(C)C(CC(=O)O)Nc1nc(-c2c[nH]c3c(F)cc(F)cc23)ncc1F (centres unmarked) [Compound 251] |  |  | 150 | 253 | > 25000 |
| CC1(C(CC(=O)O)Nc2nc(-c3c[nH]c4c(F)cc(F)cc34)c(C#N)cc2F)CCOCC1 (centres unmarked) [Compound 255, 3-((5-cyano-6-(5,7-difluoro-1H-indol-3-yl)-3-fluoropyridin-2-yl)amino)-3-(4-methyltetrahydro-2H-pyran-4-yl)propanoic Acid] |  |  | 170 | 151.1 | 5300 |
| CC(=O)NCc1cc(F)c(N[C@H]2CCC[C@@H](NC(=O)c3cn(C)cn3)C2)nc1-c1c[nH]c2c(F)cc(F)cc12 [Compound 259] | 170 | > 25000 |  | > 260 |  |
